The target in this test is T1, human ΔF508-CFTR (Homo sapiens, UniProt P13569, DEL508-508).
T1 construct: expressed in transfected cells
As to the kind of experiment: CFTR-YFP High Throughput Assay (YFP halide flux in FRT cells). It counts as cell-based. The note with it: FRT cells expressing human ΔF508-CFTR and YFP; for EC50: forskolin stimulated. How it is done:
Assays for Detecting and Measuring the Effect of Compounds on dF508-CFTR Channels CFRT-YFP High Throughput Assay:
The following protocol is designed to selectively screen small molecule compounds for F508del CFTR corrector activities in the HTS YFP flux assay. In this protocol, the cells are incubated with testing compounds for 24 hours, washed with PBS, stimulated with forskolin and a standard potentiator, and read on a 384-well HTS plate reader, such as the Hamamatsu FDDD-6000.
YFP fluorescence intensity is acquired at high speed before and after iodide buffer is injected to the assay cells. Iodide enters the cells via active CFTR channels in the plasma membrane, and quenches the YFP fluorescence. The rate of fluorescence quenching is proportionally related to the total CFTR activities in the cell membrane. dF508-CFTR corrector accelerates YFP quenching by increasing the number of CFTR molecules in the testing cell plasma membrane.
This method was initially developed for bench top plate readers (Galietta et al., 2001), and was adapted to the HTS format (Sui et al. Assay Drug Dev. Technol. 2010).
Fisher Rat Thyroid (FRT) cells stably expressing both human AF508-CFTR and a halide-sensitive yellow fluorescent protein (YFP—H148Q/1152L 25, 22) (Galietta et al., Am. J. Physiol Cell Physiol 281(5), C1734, 2001) were cultured on plastic surface in Coon's modified Ham's F12 medium supplemented with FBS 10%, L-glutamine 2 mM, penicillin 100 U/mL, and streptomycin 100 μg/mL. G418 (0.75-1.0 mg/mL) and zeocin (3.2 ug/mL) were used for selection of FRT cells expressing ΔF508-CFTR and YFP. For primary screening, FRT cells were plated into 384-well black wall, transparent bottom microtiter plates (Costar; Corning Inc.) at a cell density of 20,000-40,000 per well. Test compound was applied to the cells at varying concentrations ranging from […] in either a 2-fold or 3-fold dilution series. Cells were incubated in a cell culture incubator at 37° C. with 5% CO2 for 24-26 h. Assay plates were washed with DPBS media (Thermo, cat# SH30028.02) to remove unbound cells and compound. Stimulation media (25 μL) containing 20 μM Forskolin & 30 μM P3 [6-(Ethyl-phenyl-sulfonyl)-4-oxo-1,4-dihydro-quinoline-3-carboxylic acid 2-methoxy-benzylamide] in Hams F-12 coon's modified media was added to the plate wells and incubated at room temperature for 60-120 min. 25 μL of HEPES-PBS-I buffer (10 mM HEPES, 1 mM MgCl2, 3 mM KCl, 1 mM CaCl2, 150 mM NaI) was then added and fluorescence quench curves (Excitation 500 nm/Emission 540 nm; exposure 136 ms) were immediately recorded on an FDSS-6000 plate reader (Hamamatsu). Quench rates were derived from least squares fitting of the data as described by Sui et al., (2010).
The following protocol is designed to selectively screen small molecule compounds for F508del CFTR potentiator activities in the HTS YFP flux assay. In this protocol, the cells are incubated at 27 C for 24 hours with homogeneously boosted dF508-CFTR expression in the cell membrane by the low temperature, washed with PBS, stimulated with forskolin, and read on a 384-well HTS plate reader, such as the Hamamatsu FDDD-6000.
YFP fluorescence intensity is acquired at high speed before and after iodide buffer is injected to the assay cells. Iodide enters the cells via active CFTR channels in the plasma membrane, and quenches the YFP fluorescence. The rate of fluorescence quenching is proportionally related to the total CFTR activities in the cell membrane. dF508del-CFTR potentiators accelerate YFP quenching by increasing CFTR activities in the testing cell plasma membrane.
Fisher Rat Thyroid (FRT) cells stably expressing both human ΔF508-CFTR and a halide-sensitive yellow fluorescent protein (YFP-H148Q/I152L 25, 22) (Galietta et al., Am. J. Physiol Cell Physiol 281(5), C1734, 2001) were cultured on plastic surface in Coon's modified Ham's F12 medium supplemented with FBS 10%, L-glutamine 2 mM, penicillin 100 U/mL, and streptomycin 100 μg/mL. […]

Bounds are passed on as bounds.

T1 sequence (P13569 with tags, fused parts or gaps DEL508-508): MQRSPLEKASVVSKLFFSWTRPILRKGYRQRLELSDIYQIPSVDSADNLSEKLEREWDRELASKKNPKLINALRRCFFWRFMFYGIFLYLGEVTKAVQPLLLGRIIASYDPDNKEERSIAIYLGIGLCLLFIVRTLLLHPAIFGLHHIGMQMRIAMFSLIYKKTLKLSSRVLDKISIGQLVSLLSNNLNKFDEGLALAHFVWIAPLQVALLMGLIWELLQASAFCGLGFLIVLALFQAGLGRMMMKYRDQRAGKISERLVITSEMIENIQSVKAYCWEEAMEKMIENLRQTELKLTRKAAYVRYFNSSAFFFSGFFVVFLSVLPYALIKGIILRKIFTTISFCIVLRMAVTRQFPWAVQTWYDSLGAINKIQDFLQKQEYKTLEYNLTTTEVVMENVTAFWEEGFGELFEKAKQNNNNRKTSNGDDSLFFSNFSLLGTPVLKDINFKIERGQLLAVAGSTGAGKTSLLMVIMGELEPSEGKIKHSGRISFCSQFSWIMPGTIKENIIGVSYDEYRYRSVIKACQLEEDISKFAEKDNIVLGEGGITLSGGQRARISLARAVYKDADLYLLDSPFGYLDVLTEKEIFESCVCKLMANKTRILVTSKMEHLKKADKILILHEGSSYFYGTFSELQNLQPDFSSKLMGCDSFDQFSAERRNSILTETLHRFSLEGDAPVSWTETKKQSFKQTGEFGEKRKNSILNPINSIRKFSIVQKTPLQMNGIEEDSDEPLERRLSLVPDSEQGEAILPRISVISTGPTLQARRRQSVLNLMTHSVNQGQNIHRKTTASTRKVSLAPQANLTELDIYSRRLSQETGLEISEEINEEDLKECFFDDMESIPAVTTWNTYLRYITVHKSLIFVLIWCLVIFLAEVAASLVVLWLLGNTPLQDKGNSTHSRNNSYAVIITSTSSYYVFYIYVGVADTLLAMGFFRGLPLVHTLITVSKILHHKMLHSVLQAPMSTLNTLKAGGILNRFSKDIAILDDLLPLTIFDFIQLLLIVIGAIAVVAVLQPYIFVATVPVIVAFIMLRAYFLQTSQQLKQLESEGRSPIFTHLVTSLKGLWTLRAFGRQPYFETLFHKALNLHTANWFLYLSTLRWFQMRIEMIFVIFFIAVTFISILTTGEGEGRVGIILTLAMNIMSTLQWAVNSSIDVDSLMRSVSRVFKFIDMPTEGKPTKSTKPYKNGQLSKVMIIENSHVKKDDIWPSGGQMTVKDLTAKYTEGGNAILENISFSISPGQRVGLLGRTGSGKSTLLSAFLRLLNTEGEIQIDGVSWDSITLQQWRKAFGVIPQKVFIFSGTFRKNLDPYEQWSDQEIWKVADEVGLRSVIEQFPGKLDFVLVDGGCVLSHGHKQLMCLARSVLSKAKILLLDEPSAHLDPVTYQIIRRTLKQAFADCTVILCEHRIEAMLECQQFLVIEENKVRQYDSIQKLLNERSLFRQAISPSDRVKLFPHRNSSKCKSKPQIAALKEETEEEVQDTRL

As to “2-(4-(3-aminophenyl)-1-oxophthalazin-2(1H)-yl)-N-ethyl-N-(4-ethylphenyl)acetamide [Example 7]”, the “% Efficacy (Emax normalized to the positive control)” value is reported as “++ (a range of 80%-30%)” and the concentration for a half-maximal effect (EC50) is above 20 µM.
Turning to “2-(4-(3-chlorophenyl)-1-oxophthalazin-2(1H)-yl)-N-(2,2-difluorobenzo[d][1,3]dioxol-5-yl)-N-ethylacetamide [Example 21]”, the “% Efficacy (Emax normalized to the positive control)” value is “+++ (EMAX > 80%)” and the EC50 is below 10 µM.
For “2-(4-(3-cyanophenyl)-1-oxophthalazin-2(1H)-yl)-N-(2,2-difluorobenzo[d][1,3]dioxol-5-yl)-N-ethylacetamide [Example 20]” the same measures were “++ (a range of 80%-30%)” and above 20 µM.
For “2-(4-(3-cyanophenyl)-1-oxophthalazin-2(1H)-yl)-N-ethyl-N-(4-ethylphenyl)acetamide [Example 16]” the same measures were “++ (a range of 80%-30%)” and below 10 µM.
For “2-(4-(benzo[d][1,3]dioxol-4-yl)-1-oxophthalazin-2(1H)-yl)-N-ethyl-N-(4-ethylphenyl)acetamide [Example 9]” the same measures were “+ (a range of 30%-10%)” and below 10 µM.
Consider “3-(3-(2-(ethyl(4-ethylphenyl)amino)-2-oxoethyl)-4-oxo-3,4-dihydrophthalazin-1-yl)benzamide [Example 10]”, for which the “% Efficacy (Emax normalized to the positive control)” value is reported as “+ (a range of 30%-10%)” and the EC50 is above 20 µM.
The matching figures for “4-(3-(2-((2,2-difluorobenzo[d][1,3]dioxol-5-yl)(ethyl)amino)-2-oxoethyl)-4-oxo-3,4-dihydro-phthalazin-1-yl)benzamide [Example 18]”: “+++ (EMAX > 80%)” and 10 to 20 µM.
Turning to “4-(3-(2-((2,2-difluorobenzo[d][1,3]dioxol-5-yl)(ethyl)amino)-2-oxoethyl)-4-oxo-3,4-dihydrophthalazin-1-yl)benzoic acid [Example 19]”, the “% Efficacy (Emax normalized to the positive control)” value is listed as “+++ (EMAX > 80%)” and the EC50 was in the range of 10 to 20 µM.
The matching figures for “4-(3-(2-(ethyl(4-ethylphenyl)amino)-2-oxoethyl)-4-oxo-3,4-dihydrophthalazin-1-yl)benzamide [Example 11]”: “++ (a range of 80%-30%)” and 10 to 20 µM.
For “4-(3-(2-(ethyl(4-ethylphenyl)amino)-2-oxoethyl)-4-oxo-3,4-dihydrophthalazin-1-yl)benzoic acid [Example 13]” the same measures were “++ (a range of 80%-30%)” and 10 to 20 µM.
`CCc1ccc(N(CC)C(=O)Cn2nc(-c3ccccc3)c3ccccc3c2=O)cc1` [Example 1, N-ethyl-N-(4-ethylphenyl)-2-(1-oxo-4-phenylphthalazin-2(1H)-yl)acetamide]: the EC50 fell in the range of 10 to 20 µM.
The same measure, in the same setting: in the case of `CCc1ccc(N(CC)C(=O)Cn2nc(-c3ccc(O)cc3)c3ccccc3c2=O)cc1` [Example 2, N-ethyl-N-(4-ethylphenyl)-2-(4-(4-hydroxyphenyl)-1-oxophthalazin-2(1H)-yl)acetamide] it was below 10 µM; in that of `CCc1ccc(N(CC)C(=O)Cn2nc(-c3cccnc3)c3ccccc3c2=O)cc1` [Example 3, N-ethyl-N-(4-ethylphenyl)-2-(1-oxo-4-(pyridin-3-yl)phthalazin-2(1H)-yl)acetamide], above 20 µM; in that of `CCc1ccc(N(CC)C(=O)Cn2nc(-c3ccncc3)c3ccccc3c2=O)cc1` [Example 4, N-ethyl-N-(4-ethylphenyl)-2-(1-oxo-4-(pyridin-4-yl)phthalazin-2(1H)-yl)acetamide], above 20 µM.
On the same count and under the same terms, for `CCc1ccc(N(CC)C(=O)Cn2nc(-c3cccc4ncccc34)c3ccccc3c2=O)cc1` [Example 5, N-ethyl-N-(4-ethylphenyl)-2-(1-oxo-4-(quinolin-5-yl)phthalazin-2(1H)-yl)acetamide] the value was 10 to 20 µM.
On the same count and under the same terms, in the case of `CCc1ccc(N(CC)C(=O)Cn2nc(-c3cccc4cnccc34)c3ccccc3c2=O)cc1` [Example 6, N-ethyl-N-(4-ethylphenyl)-2-(4-(isoquinolin-5-yl)-1-oxophthalazin-2(1H)-yl)acetamide] it was below 10 µM; in that of `CCN(C(=O)Cn1nc(-c2cccnc2)c2ccccc2c1=O)c1ccc2c(c1)OC(F)(F)O2` [Example 24], above 20 µM.
Regarding `CCc1ccc(N(CC)C(=O)Cn2nc(Cc3cccnc3)c3ccccc3c2=O)cc1` [Example 25, N-ethyl-N-(4-ethylphenyl)-2-(1-oxo-4-(pyridin-3-ylmethyl)phthalazin-2(1H)-yl)acetamide], the 50% effective concentration (EC50) is below 10 µM.
Same read-out and setting: for `CCN(C(=O)Cn1nc(Cc2cccnc2)c2ccccc2c1=O)c1ccc2c(c1)OC(F)(F)O2` [Example 26, N-(2,2-difluorobenzo[d][1,3]dioxol-5-yl)-N-ethyl-2-(1-oxo-4-(pyridin-3-ylmethyl)phthalazin-2(1H)-yl)acetamide] the value was below 10 µM; for `COc1ccc(N(C)C(=O)Cn2nc(Cc3cccnc3)c3ccccc3c2=O)cc1` [Example 27, N-(4-methoxyphenyl)-N-methyl-2-(1-oxo-4-(pyridin-3-ylmethyl)phthalazin-2(1H)-yl)acetamide], below 10 µM.
With `CCc1ccc(N(CC)C(=O)Cn2nc(Cc3cccnc3)c3ccc(C)cc3c2=O)cc1` [Example 28, N-ethyl-N-(4-ethylphenyl)-2-(7-methyl-1-oxo-4-(pyridin-3-ylmethyl)phthalazin-2(1H)-yl)acetamide], the EC50 was below 10 µM.
In the case of `CCc1ccc(N(CC)C(=O)Cn2nc(Cc3cccnc3)c3cc(C)ccc3c2=O)cc1` [Example 29, N-ethyl-N-(4-ethylphenyl)-2-(6-methyl-1-oxo-4-(pyridin-3-ylmethyl)phthalazin-2(1H)-yl)acetamide], the EC50 is below 10 µM.
In the case of `CCc1ccc(N(CC)C(=O)Cn2nc(Cc3cccnc3)c3cccc(C)c3c2=O)cc1` [Example 30, N-ethyl-N-(4-ethylphenyl)-2-(8-methyl-1-oxo-4-(pyridin-3-ylmethyl)phthalazin-2(1H)-yl)acetamide], the EC50 was below 10 µM.
On the same count and under the same terms, for `CCc1ccc(N(CC)C(=O)Cn2nc(Cc3cccnc3)c3c(C)cccc3c2=O)cc1` [Example 31, N-ethyl-N-(4-ethylphenyl)-2-(5-methyl-1-oxo-4-(pyridin-3-ylmethyl)phthalazin-2(1H)-yl)acetamide] the value was below 10 µM; for `CCc1ccc(N(CC)C(=O)Cn2nc(Cc3cccnc3)c3cc(OC)c(OC)cc3c2=O)cc1` [Example 32, 2-(6,7-dimethoxy-1-oxo-4-(pyridin-3-ylmethyl)phthalazin-2(1H)-yl)-N-ethyl-N-(4-ethylphenyl)acetamide], below 10 µM.
For the compound `CCc1ccc(N(CC)C(=O)Cn2nc(Cc3cccnc3)c3ccc(C(C)(C)C)cc3c2=O)cc1` [Example 33, 2-(7-(tert-butyl)-1-oxo-4-(pyridin-3-ylmethyl)phthalazin-2(1H)-yl)-N-ethyl-N-(4-ethylphenyl)acetamide], the concentration for a half-maximal effect (EC50) is below 10 µM.
Same read-out and setting: in the case of `CCc1ccc(N(CC)C(=O)Cn2nc(Cc3cccnc3)c3cc(C(C)(C)C)ccc3c2=O)cc1` [Example 34, 2-(6-(tert-butyl)-1-oxo-4-(pyridin-3-ylmethyl)phthalazin-2(1H)-yl)-N-ethyl-N-(4-ethylphenyl)acetamide] it was below 10 µM.

As usually defined, the EC50 is the concentration needed to bring the measured effect to its halfway point.

Source of the values: US9790215B2 (FLATLEY DISCOVERY LAB, LLC, priority 2013, dated 2017).
